Holding throughout (type): in vivo
For assay [1], the system named is mustard beetle larvae (Phaedon cochleariae). Put plainly: Phaedon cochleariae - spray test. The settings on record: Chinese cabbage leaf disks. The text has this:
(§1) The expected activity for a given combination of two active compounds can be calculated according to S. R. Colby, Weeds 15 (1967), 20-22 as follows: • If • X is the kill rate, expressed in % of the untreated control, when active compound A is applied at an application rate of m g/ha or at a concentration of m ppm, • Y is the kill rate, expressed in % of the untreated control, when active compound B is applied at an application rate of n g/ha or at a concentration of n ppm and • E is the kill rate, expressed in % of the untreated control, when active compounds A and B is applied at application rates of m and n g/ha or at a concentration of m and n ppm, • then
Phaedon cochleariae—Spray Test
(§2) To produce a suitable preparation of active compound, 1 part by weight of active compound is mixed with the stated amount of solvents and is diluted with water, containing an emulsifier concentration of 1000 ppm, to the desired concentration. To produce a suitable preparation of a spore suspension the spores are diluted with emulsifier containing water to the desired concentration. Further test concentrations are prepared by dilution with emulsifier containing water.
Chinese cabbage (Brassica pekinensis) leaf disks are sprayed with a preparation of the active ingredient of the desired concentration. Once dry, the leaf disks are infested with mustard beetle larvae (Phaedon cochleariae).
After the specified period of time, mortality in % is determined. 100% means all beetle larvae have been killed and 0% means none of the beetle larvae have been killed. The mortality values determined thus are recalculated using the Colby-formula (see sheet 1).

Assay [2] has as its system larvae of the cotton boll worm (Heliothis armigera). The experiment in a line: Heliothis armigera - spray test. To be noted: cotton plants.
Source text: as §1
Heliothis armigera—Spray Test
(§3) Solvent: 7 parts by weight of dimethylformamide Emulsifier: alkylaryl polyglycol ether
To produce a suitable preparation of active compound, 1 part by weight of active compound is mixed with the stated amount of solvent and is diluted with water, containing an emulsifier concentration of 1000 ppm, to the desired concentration. Further test concentrations are prepared by dilution with emulsifier containing water. Ammonium salt and/or penetration enhancer in a dosage of 1000 ppm are added to the desired concentration if necessary.
Cotton plants (Gossypium hirsutum) are treated by being sprayed with the preparation of the active compound of the desired concentration and are infested with larvae of the cotton boll worm (Heliothis armigera).
After the specified period of time, the mortality in % is determined. 100% means all caterpillars have been killed; 0% means none of the caterpillars have been killed. The mortality values determined thus are recalculated using the Colby-formula (see sheet 1).

For assay [3], the system named is two spotted spidermite (Tetranychus urticae). The experiment in a line: Tetranychus urticae - spray test OP-resistant. To be noted: French bean leaf disks.
Source text: as §1
Tetranvchus Urticae—Spray Test OP-Resistant
as §2
French bean (Phaseolus vulgaris) leaf disks which are heavily infested with all stages of the two spotted spidermite (Tetranychus urticae), are sprayed with a preparation of the active ingredient of the desired concentration.
After the specified period of time, mortality in % is determined. 100% means all spider mites have been killed and 0% means none of the spider mites have been killed. The mortality values determined thus are recalculated using the Colby-formula (see sheet 1).

Assay [4] has as its system caterpillars of the fall army worm (Spodoptera frugiperda). Put plainly: Spodoptera frugiperda - spray test. To be noted: 0.1 ppm, cotton leaves.
Source text: as §1
Spodoptera frugiperda—Spray Test
as §3
To produce a suitable preparation of active compound, 1 part by weight of active compound is mixed with the stated amount of solvent and is diluted with water, containing an emulsifier concentration of 1000 ppm, to the desired concentration. Further test concentrations are prepared by dilution with emulsifier containing water. Ammonium salt and/or penetration enhancer in a dosage of 1000 ppm are added if necessary.
Cotton leaves (Gossypium hirsutum) are treated by being sprayed with the preparation of the active compound of the desired concentration and are infested with caterpillars of the fall army worm (Spodoptera frugiperda).
After the specified period of time mortality in % is determined. 100% means all the caterpillars have been killed and 0% means none of the caterpillars have been killed. The mortality values determined thus are recalculated using the Colby-formula (see sheet 1).

The structures appear in SMILES notation.

Turning to `CNC(=O)c1cc(C#N)cc(C)c1NC(=O)c1cc(Cn2nnc(C(F)(F)F)n2)nn1-c1ncccc1Cl` [(II-2), 1-(3-chloropyridin-2-yl)-N-[4-cyano-2-methyl-6-(methylcarbamoyl)phenyl]-3-{[5-(trifluoromethyl)-2H-tetrazol-2-yl]methyl}-1H-pyrazole-5-carboxamide], the results for the “Efficacy in % after 6d” value in assay [1] (0.0064 g ai/ha) and in assay [1] (0.032 g ai/ha) were 0% and 33%, respectively.

On to `CNC(=O)c1cc(Cl)cc(C)c1NC(=O)c1cc(Br)nn1-c1ncccc1Cl` [Chlorantraniliprole], for which the “Efficacy in % after 6d” value in assay [1] (0.16 g ai/ha) worked out at 0%.

Turning to `Cc1cc(C(F)(C(F)(F)F)C(F)(F)F)ccc1NC(=O)c1cccc(Cl)c1C(=O)NC(C)(C)C#N` [Compound of formula (II-6)], the figures for the “Efficacy in % after 2d” value in assay [2] (0.1 ppm), in assay [2] (0.2 ppm) and in assay [2] (0.4 ppm) were 20%, 50% and 60%, respectively. In addition, in assay [2] (0.4 ppm, 1 d), the “Efficacy in % after 1d” value stood at 30%.

`CNC(=O)c1cc(C#N)cc(C)c1NC(=O)c1cc(Br)nn1-c1ncccc1Cl` [Cyantraniliprole]: the “Efficacy in % after 6d” value in assay [2] (0.15 ppm, 6 d) is listed as 50%.

Consider `Cc1cc(C(F)(C(F)(F)F)C(F)(F)F)ccc1NC(=O)c1cccc(I)c1C(=O)NC(C)(C)CS(C)(=O)=O` [Flubendiamide], for which the “Efficacy in % after 2d” value in assay [3] (0.8 g ai/ha), in assay [3] (4 g ai/ha) and in assay [4] (2 d) was 0% in each case. The “Efficacy in % after 6d” value in assay [3] (0.8 g ai/ha, 6 d) was determined as 0%. Besides, in assay [4] (1 d), the “Efficacy in % after 1d” value is recorded as 0%. For the same compound, the “Efficacy in % after 3d” value in assay [4] (3 d) amounted to 0%.

(Values after patent publication US20170064957A1, “ACTIVE COMPOUND COMBINATIONS HAVING IN[…]” (BAYER CROPSCIENCE AKTIENGESELLSCHAFT, priority 2014, published 2017).)
